≈ marks a conversion by molar mass, not a printed value.

What all share (format): cell-based
The subject of test [1] is Staphylococcus aureus TI-1. The test is described as follows: Antibacterial activity (IC), broth microplate as in Example 4 (Example 5, Table 40). To be noted: for MIC: TI1, 18 h. As for the experimental part: (§1) A suitable amount of a sample was dissolved in dimethylsulfoxide (DMSO), and the resultant solution was diluted with the same amount of sterilized distilled water to prepare a bulk sample of 1,000 µg/ml. Mueller-Hinton broth (product of DIFCO) was dispensed into each well of 96-well microplate. Thereafter, the bulk specimen was added to the first well of a row, and successively diluted (10-fold each time) with sterilized distilled water. Separately, a bacterial cell suspension for the test (Staphylococcus aureus 209-P) which had been cultured in the above-mentioned broth overnight at 37°C was inoculated to each well so that the final inoculation amount of 10^6 CFU/ml was attained. The final concentrations of the samples were 100, 10, and 1 µg/ml.
(§2) The antibacterial action was evaluated by the inhibitory concentration (hereinafter abbreviated as IC) at which propagation of the bacteria cultured at 37°C for 18 hours was inhibited. Inhibition was determined by the turbidity of the medium. The expressions "IC≤100", "≤10", and "≤1" indicate that MIC-equivalent values obtained at the succesive […] dilution of the sample are 100-10 µg/ml, 10-1 µg/ml, and not more than 1 µg/ml, respectively. […] (In the subsequent Examples, the same rule applies correspondingly.) Table 39
In a manner similar to that described in Example 4, antibacterial activity of the invention compound was determined. The bacterium used for the test was Staphylococcus aureus TI-1.

For test [2], the system named is Pasteurella multocida (Kobe-6). Nature of the test: Antibacterial activity (IC), broth microplate as in Example 4 (Example 6, Table 41). The following applies: origin pig; for MIC: 18 h. As for the experimental part:
as §1, §2
In a manner similar to that described in Example 4, antibacterial activity of the invention compound was determined. The bacterium used for the test was Pasteurella Kobe-6 (origin: pig; Pasteurella multocida).

Test [3] has as its system Staphylococcus aureus 209-P. Nature of the test: Antibacterial activity (IC), Mueller-Hinton broth, 96-well microplate (Example 4, Table 39). To be noted: 37°C, 18 hours. As for the experimental part: as §1, §2
Test [4] deals with methicillin-resistant Staphylococcus aureus (MRSA) isolated from humans. Nature of the test: Antibacterial activity (IC), Mueller-Hinton agar containing the sample (Example 8, Table 43). To be noted: for MIC: Staphylococcus aureus, MRSA, 18 h; for IC: 18 hours. As for the experimental part: as §2
A suitable amount of a sample was dissolved in dimethylsulfoxide (DMSO), after which the resulting solution was diluted with the same amount of sterilized distilled water to prepare a bulk sample of 1,000 µg/ml. Separately, a bacterial liquid for the test (methicillin-resistant Staphylococcus aureus (MRSA) isolated from humans) which had been cultured in Mueller-Hinton broth (product of DIFCO) was prepared and inoculated to a Mueller-Hinton agar (product of DIFCO) containing the sample so that the final inoculation amount of 10^6 CFU/ml was achieved. The final concentrations of the samples were 100, 10, and 1 µg/ml.
After culturing at 37°C for 18 hours, the antibacterial activity was evaluated in terms of IC in a manner similar to that described in Example 4.

For test [5], the system named is Bordetella bronchiseptica (SM2-4). The test is described as follows: Antibacterial activity (IC), broth microplate as in Example 4 (Example 7, Table 42). The following applies: for MIC: 18 h. As for the experimental part: as §1, §2
In a manner similar to that described in Example 4, antibacterial activity of the invention compound was determined. The bacterium used for the test was Bordetella bronchiseptica (SM2-4).

Test [6] has as its system Enterococcus from fish. The test is described as follows: Antibacterial activity (IC), agar as in Example 8, media with 1.5% NaCl, 25°C (Example 20, Tables 53-55). In short, it runs like this:
(§3)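 Growth inhibition was scored by turbidity after culture at 25°C, with IC bands set from 2-fold-dilution MIC-equivalents. Samples were tested at final 100, 10 and 1 µg/ml in Mueller-Hinton agar with 1.5% NaCl, seeded with 10^6 CFU/ml of the fish isolates.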

Test [7] relates to Pasteurella from fish. The description is as above. The method, boiled down:
as §3

Usually MIC stands for the least concentration at which growth counts as inhibited. For the molecule `Cc1cc(OC(C)C(=O)C(C#N)c2ccc(Cl)c(Cl)c2)ccc1Oc1ccc(C(F)(F)F)cc1Cl` (stereo not shown) [compound 44], the MIC was not above 1 µg/mL in test [1]; 1 to 10 µg/mL (≈ 1.84 to 18.4 µM) in test [2]; not above 1 µg/mL in test [3]; not above 1 µg/mL in test [4] (MRSA strain 891179, 37°C); not above 1 µg/mL in test [4] (MRSA strain 891185, 37°C); not above 1 µg/mL in test [4] (MRSA strain 891187, 37°C). Besides, the MIC in test [4] (MRSA strain 891192, 37°C) was not above 1 µg/mL; in test [4] (MRSA strain 900048, 37°C) it was not above 1 µg/mL; in test [4] (MRSA strain 900056, 37°C) it was not above 1 µg/mL; in test [5], 10 to 100 µg/mL (≈ 18.4 to 184 µM).

As for `Cc1cc(Oc2ccc(C(F)(F)F)cc2Cl)ccc1OC(C)C(=O)C(C#N)c1ccc(Cl)c(Cl)c1` (stereo not shown) [compound 46], the minimal inhibitory concentration (MIC) was not above 1 µg/mL in test [1]; 10 to 100 µg/mL (≈ 18.4 to 184 µM) in test [2]; 1 to 10 µg/mL (≈ 1.84 to 18.4 µM) in test [3]; 1 to 10 µg/mL (≈ 1.84 to 18.4 µM) in test [4] (MRSA strain 891179, 37°C); 1 to 10 µg/mL (≈ 1.84 to 18.4 µM) in test [4] (MRSA strain 891185, 37°C); not above 1 µg/mL in test [4] (MRSA strain 891187, 37°C). The MIC in test [4] (MRSA strain 891192, 37°C) is 1 to 10 µg/mL (≈ 1.84 to 18.4 µM); in test [4] (MRSA strain 900048, 37°C) it was not above 1 µg/mL; in test [4] (MRSA strain 900056, 37°C), not above 1 µg/mL; in test [5], 10 to 100 µg/mL (≈ 18.4 to 184 µM).

On to “4-[2-(2-chloro-4-trifluoromethylphenoxy)-4-methylphenoxy]-2-(3,4-dichlorophenyl)-3-oxopentanonitrile and 4-[2-(2-chloro-4-trifluoromethylphenoxy)-5-methylphenoxy]-2-(3,4-dichlorophenyl)-3-oxopentanonitrile [Compound No. 308]”, for which the IC in test [1] was 308 (≤1) (not more than 1 µg/ml); in test [2], 308 (≤10) (10-1 µg/ml); in test [3], 308 (≤1) (not more than 1 µg/ml); in test [4] (MRSA strain 891179, 37°C), not above 1 µg/mL; in test [4] (MRSA strain 891185, 37°C), not above 1 µg/mL; in test [4] (MRSA strain 891187, 37°C), not above 1 µg/mL. The IC was not above 1 µg/mL in test [4] (MRSA strain 891192, 37°C); not above 1 µg/mL in test [4] (MRSA strain 900048, 37°C); not above 1 µg/mL in test [4] (MRSA strain 900056, 37°C); 308 (≤100) (MIC-equivalent values obtained at the succesive 2-fold dilution of the sample are 100-10 µg/ml) in test [5]; not above 1 µg/mL in test [6] (Enterococcus Seriolicida HI); not above 1 µg/mL in test [6] (Enterococcus Seriolicida KG86050). The IC in test [6] (Enterococcus Seriolicida MS89060), in test [6] (Enterococcus Seriolicida MS89064), in test [6] (Enterococcus Seriolicida MS89066), in test [6] (Enterococcus Seriolicida MS89068), in test [6] (Enterococcus Seriolicida SE94-001) and in test [6] (Enterococcus Seriolicida SE94-002) was not above 1 µg/mL each time. Further, the IC in test [6] (Enterococcus Seriolicida SE94-003) was not above 1 µg/mL; in test [6] (Enterococcus Seriolicida SE94-004), not above 1 µg/mL; in test [6] (Enterococcus Seriolicida SE94-005), not above 1 µg/mL; in test [7] (Pasteurella piscicida KP94-02) it was “≤”; in test [7] (Pasteurella piscicida KP94-04), “≤”; in test [7] (Pasteurella piscicida KP94-05), “≤”. Besides, the IC result in test [7] (Pasteurella piscicida KP94-06) was “≤”.

On to `Cc1cc(OC(C)C(=O)C(C#N)c2cccc(Br)c2)ccc1Oc1ccc(C(F)(F)F)cc1Cl` (stereo not shown) [compound 45], for which the MIC in test [1] was not above 1 µg/mL; in test [2], 1 to 10 µg/mL (≈ 1.81 to 18.1 µM); in test [3], 1 to 10 µg/mL (≈ 1.81 to 18.1 µM); in test [4] (MRSA strain 891179, 37°C), 1 to 10 µg/mL (≈ 1.81 to 18.1 µM); in test [4] (MRSA strain 891185, 37°C) it was 1 to 10 µg/mL (≈ 1.81 to 18.1 µM); in test [4] (MRSA strain 891187, 37°C), 1 to 10 µg/mL (≈ 1.81 to 18.1 µM). Further, the MIC in test [4] (MRSA strain 891192, 37°C) lay within 1 to 10 µg/mL (≈ 1.81 to 18.1 µM); in test [4] (MRSA strain 900048, 37°C) it was 1 to 10 µg/mL (≈ 1.81 to 18.1 µM); in test [4] (MRSA strain 900056, 37°C), 1 to 10 µg/mL (≈ 1.81 to 18.1 µM); in test [5], 10 to 100 µg/mL (≈ 18.1 to 181 µM).

The values above are taken from patent EP0768085A1, “ANTIBACTERIAL AGENT” (DAIICHI PHARMACEUTICAL CO., LTD., priority 1994, dated 1996).
